Article PMC12386934, “Characteristics and Potential of KSL, KSL-W, and Dadapin-1 Antimicrobial Peptides for Preventing Infections of Orthopedic Prosthetic Devices: Identifying the Most Robust Candidate” (International Journal of Molecular Sciences, 2025)
Converted amounts (≈) assume the structure as drawn. Where a SMILES comes first, the peptide text is derived from it.

Assays:
[1] = cited from earlier work
Description: In 2021, aiming at identifying AMPs for a possible application in the prevention or treatment of prosthetic orthopedic infections, our group conducted an extensive systematic review on known short-chain AMPs, primarily based on the Database of Antimicrobial Activity and Structure of Peptides (DBAASP). The choice of considering short-chain peptides was dictated by the potentially lower allergenic risk offered by small peptides. The query included all monomeric AMPs with a length spanning from 7 to 13 amino acids. The research results provided a list of 415 entries, which were then extend ...

[2] = test system: S. epidermidis cra4029 (SE 02); assay type: cell-based
Description: The experimental scheme reported in Figure 6 helped to simplify and optimize the in vitro testing of the antibacterial activity of the different AMPs. The initial transparent microtiter plate for the determination of the minimum inhibitory concentration (MIC) by optical density (OD) measurement was conveniently used as a starting point not only for the alterative determination of the MIC by luminescence but also for the minimum bactericidal concentration (MBC) and for the minimum biofilm inhibitory concentration (MBIC), as explained below. For every test peptide, at least three independent experiments were performed on each bacterial strain per test condition (100% MHB and 20% MHB). The sole exception to this rule was when MIC values were on rare occasions found to be greater than 500 µg/mL. Under these circumstances, two consecutive experiments were performed to confirm the results. In this case, the antibacterial activity was considered insignificant and the third experiment was generally considered unnecessary.
The antibacterial properties of the test AMPs were assayed under two distinct conditions of bacterial culture: (i) with bacteria cultured in undiluted Mueller–Hinton II Broth (MHB II) and (ii) with bacteria cultured in diluted MHB II as earlier described in Campoccia et al.. Briefly, a few colonies of each bacterial strain, taken from overnight cultures on Mueller–Hinton Agar plates (MHA, PO50007A, ThermoScientific, Thermo Fisher Scientific, Segrate, Italy), were resuspended in Mueller–Hinton II Broth (MHB II, 24107, Liofilchem, Roseto degli Abruzzi, Italy), either undiluted or at a 20% dilution in deionized water. The concentration of bacteria was adjusted to approximately 10^8 CFU/mL, as estimated by optical density reading at 625 nm, using a Hewlett Packard G1103A spectrophotometer (Waldbronn, Germany). The bacterial suspension was further diluted 1:100 in 100% or 20% MHB II. […]
For assessing the MBC, 10 μL of bacterial suspensions was taken from wells corresponding to MIC, 2× MIC, and 4× MIC and then plated on MHA plates. […] The MBC was determined as the lowest dilution causing absence of bacterial colonies growth on the plate.
In order to assess the extent of the interference of the culture medium composition with the antibacterial activity of the three peptides, a “Rate of Abatement” of the bactericidal properties (RoA) was calculated using the following formula (Equation (1)):RoA = MBCMHB/MBC20% MHB(1)
RoA indicates the fold increases in the MBC when tested in undiluted medium […], i.e., with maximal interference of broth polyanionic substances, with respect to diluted medium […]. […] A more versatile measure to express the loss of activity was calculated as follows. […]

In the case of `CC(C)[C@H](NC(=O)[C@H](Cc1c[nH]c2ccccc12)NC(=O)[C@H](Cc1ccccc1)NC(=O)[C@@H](NC(=O)[C@@H](NC(=O)[C@H](CCCCN)NC(=O)[C@@H](N)CCCCN)C(C)C)C(C)C)C(=O)N[C@@H](CCCCN)C(=O)N[C@@H](Cc1ccccc1)C(=O)N[C@@H](CCCCN)C(=O)O` [KSL-W] (H-KKVVFWVKFK-OH), the “stability to enzymic activity such as trypsin-catalyzed cleavage” value [1] is listed as “greater stability” and the MBC [2] is listed as 1.95 µg/mL (≈ 1.49 µM).
